In the first assay the test system is HIV-1 Ba-L or HIV-1 IIIB infection of the HOS cell line (expressing hCXCR4/hCCR5/hCD4/pHIV-LTR-luciferase). The assay can be described thus: HOS HIV-1 Infectivity Assay. Type of assay: cell-based. Particulars: HOS cells, luciferase readout, strain not given, read-out: Activity Level. How it is done: Compounds were profiled against two HIV-1 viruses, the M-tropic (CCR5 utilizing) Ba-L strain and the T-tropic (CXCR4 utilizing) IIIB strain. Ba-L was propagated in either peripheral blood lymphocytes or SupT1/CCR5+/CXCR4+ cells. IIIB was propagated in peripheral blood lymphocytes. Compounds were tested for their ability to block infection of the HOS cell line (expressing hCXCR4/hCCR5/hCD4/pHIV-LTR-luciferase) by either HIV-1 Ba-L or HIV-1 IIIB. Compound cytotoxicity was also examined in the absence of virus addition.
HOS cells (expressing hCXCR4/hCCR5/hCD4/pHIV-LTR-luciferase) were harvested and diluted in Dulbeccos modified Eagles media supplemented with 2% FCS to a concentration of 120,000 cells/ml. The cells were plated into 96-well plates (50 μl per well) and the plates were placed in a tissue culture incubator (370° C.; 5% CO2/95% air) for a period of 24 h.
Subsequently, 50 μl of the desired drug solution (2 times the final concentration) was added to each well and the plates were returned to the tissue culture incubator ([…]; 5% CO2/95% air) for 1 h. Following this incubation, 60 μl of diluted virus (4 times the final concentration) was added to 60 μl of 2× the final desired concentration of the compound and 100 μl this compound/virus mix was added to each well (approximately 2 million RLU per well of virus). The plates were returned to the tissue culture incubator ([…]; 5% CO2/95% air) and were incubated for a further 96 h.
Following this incubation the endpoint for the virally infected cultures was quantified following addition of Steady-Glo Luciferase assay system reagent (Promega, Madison, Wis.). Cell viability or non-infected cultures was measured using a CellTiter-Glo luminescent cell viability assay system (Promega, Madison, Wis.). All luminescent readouts are performed on a Topcount luminescence detector (Packard, Meridien, Conn.).
Take “N,N,N′-Trimethyl-N′-{[2-({methyl[(8S)-5,6,7,8-tetrahydro-8-quinolinyl]amino}methyl)imidazo[1,2-a]pyridin-3-yl]methyl}-1,2-ethanediamine [Example 17]”: the IC50 was under 100 nM.

Still in this assay, the particulars now being: Human immunodeficiency virus 1, HOS cells, luciferase readout, strain not given, read-out: Activity Level.
Regarding `CN1CCN(c2ccc(-c3c(CN(C)[C@H]4CCCc5cccnc54)nc4ccccn34)cn2)CC1` [Example 14, (8S)-N-Methyl-N-({3-[6-(4-methyl-1-piperazinyl)-3-pyridinyl]imidazo[1,2-a]pyridin-2-yl}methyl)-5,6,7,8-tetrahydro-8-quinolinamine], the IC50 is under 100 nM.

Turning to `COCCN(CCOC)Cc1c(CN(C)[C@H]2CCCc3cccnc32)nc2ccccn12` [Example 19, (8S)-N-{[3-({Bis[2-(methyloxy)ethyl]amino}methyl)imidazo[1,2-a]pyridin-2-yl]methyl}-N-methyl-5,6,7,8-tetrahydro-8-quinolinamine], the IC50 was in the range of 100 to 500 nM.

Consider `CN(C)CCNC(=O)c1c(CN(C)C2CCCc3cccnc32)nc2ccccn12` (stereo not shown) [Example 33, N-[2-(dimethylamino)ethyl]-2-{[methyl(5,6,7,8-tetrahydro-8-quinolinyl)amino]methyl}imidazo[1,2-a]pyridine-3-carboxamide], for which the IC50 is 500 to 10000 nM.

Consider `CN(Cc1nc2ccccn2c1-c1cccnc1)[C@H]1CCCc2cccnc21` [Example 5, (8S)-N-Methyl-N-{[3-(3-pyridinyl)imidazo[1,2-a]pyridin-2-yl]methyl}-5,6,7,8-tetrahydro-8-quinolinamine], for which the IC50 fell in the range of 100 to 500 nM.

Turning to `CN(C)CCNCc1c(CN(C)C2CCCc3cccnc32)nc2ccccn12` (racemic) [Example 30, N,N-dimethyl-N′-[(2-{[methyl(5,6,7,8-tetrahydro-8-quinolinyl)amino]methyl}imidazo[1,2-a]pyridin-3-yl)methyl]-1,2-ethanediamine], the IC50 was in the range of 100 to 500 nM.

For `CN(C)CC(=O)NCc1c(CN(C)[C@H]2CCCc3cccnc32)nc2ccccn12` [Example 7, N^2,N^2-Dimethyl-N^1-{[2-({methyl[(8S)-5,6,7,8-tetrahydro-8-quinolinyl]amino}methyl)imidazo[1,2-a]pyridin-3-yl]methyl}glycinamide], the IC50 was under 100 nM.

Consider `CN(C)C1CCN(C(=O)c2c(CN(C)C3CCCc4cccnc43)nc3ccccn23)C1` (stereo not shown) [Example 36, N-[(3-{[3-(dimethylamino)-1-pyrrolidinyl]carbonyl}imidazo[1,2-a]pyridin-2-yl)methyl]-N-methyl-5,6,7,8-tetrahydro-8-quinolinamine], for which the IC50 was 100 to 500 nM.

For the molecule `CN(Cc1nc2ccccn2c1-c1ccc(N2CCCC2)nc1)[C@H]1CCCc2cccnc21` [Example 15, (8S)-N-Methyl-N-({3-[6-(1-pyrrolidinyl)-3-pyridinyl]imidazo[1,2-a]pyridin-2-yl}methyl)-5,6,7,8-tetrahydro-8-quinolinamine], the IC50 lay in the range of 100 to 500 nM.

For the molecule `CN(Cc1nc2ccccn2c1-c1ccncc1)[C@H]1CCCc2cccnc21` [Example 1, (8S)-N-Methyl-N-{[3-(4-pyridinyl)imidazo[1,2-a]pyridin-2-yl]methyl}-5,6,7,8-tetrahydro-8-quinolinamine], the IC50 is under 100 nM.

For `CN(Cc1nc2ccccn2c1C(=O)N1CC(N)C1)C1CCCc2cccnc21` (stereo not shown) [Example 34, N-({3-[(3-amino-1-azetidinyl)carbonyl]imidazo[1,2-a]pyridin-2-yl}methyl)-N-methyl-5,6,7,8-tetrahydro-8-quinolinamine], the IC50 was in the range of 500 to 10000 nM.

As for `CN(Cc1nc2ccccn2c1CN1CCCCC1)[C@H]1CCCc2cccnc21` [Example 12, (8S)-N-Methyl-N-{[3-(1-piperidinylmethyl)imidazo[1,2-a]pyridin-2-yl]methyl}-5,6,7,8-tetrahydro-8-quinolinamine], the IC50 is under 100 nM.

As for `CN(C)c1ccc(-c2c(CN(C)[C@H]3CCCc4cccnc43)nc3ccccn23)cn1` [Example 11, (8S)-N-({3-[6-(Dimethylamino)-3-pyridinyl]imidazo[1,2-a]pyridin-2-yl}methyl)-N-methyl-5,6,7,8-tetrahydro-8-quinolinamine], the IC50 was under 100 nM.

As for `CN1CCC(N(C)Cc2c(CN(C)[C@H]3CCCc4cccnc43)nc3ccccn23)C1` (stereo partly drawn) [Example 23, (8S)-N-Methyl-N-[(3-{[methyl(1-methyl-3-pyrrolidinyl)amino]methyl}imidazo[1,2-a]pyridin-2-yl)methyl]-5,6,7,8-tetrahydro-8-quinolinamine], the IC50 was under 100 nM.

Take `CN(Cc1nc2ccccn2c1-c1ccnc(N2CCOCC2)c1)[C@H]1CCCc2cccnc21` [Example 29, (8S)-N-Methyl-N-({3-[2-(4-morpholinyl)-4-pyridinyl]imidazo[1,2-a]pyridin-2-yl}methyl)-5,6,7,8-tetrahydro-8-quinolinamine]: the IC50 lay within 100 to 500 nM.

As for `CN(Cc1nc2ccccn2c1CN1CCOCC1)[C@H]1CCCc2cccnc21` [Example 10, (8S)-N-Methyl-N-{[3-(4-morpholinylmethyl)imidazo[1,2-a]pyridin-2-yl]methyl}-5,6,7,8-tetrahydro-8-quinolinamine], the IC50 was 100 to 500 nM.

`CN(C)CCCc1c(CN(C)[C@H]2CCCc3cccnc32)nc2ccccn12` [Example 3, (8S)-N-({3-[3-(Dimethylamino)propyl]imidazo[1,2-a]pyridin-2-yl}methyl)-N-methyl-5,6,7,8-tetrahydro-8-quinolinamine]: the IC50 was under 100 nM.

With `CN(Cc1nc2ccccn2c1C(=O)NCCN1CCCC1)C1CCCc2cccnc21` (stereo not shown) [Example 35, 2-{[methyl(5,6,7,8-tetrahydro-8-quinolinyl)amino]methyl}-N-[2-(1-pyrrolidinyl)ethyl]imidazo[1,2-a]pyridine-3-carboxamide], the IC50 is 500 to 10000 nM.

As to `CN(Cc1nc2ccccn2c1CNCCCN)C1CCCc2cccnc21` (stereo not shown) [Example 32, N-[(2-{-[methyl(5,6,7,8-tetrahydro-8-quinolinyl)amino]methyl}imidazo[1,2-a]pyridin-3-yl)methyl]-1,3-propanediamine], the IC50 is 100 to 500 nM.

As to `CC(C)CN(C)Cc1c(CN(C)[C@H]2CCCc3cccnc32)nc2ccccn12` [Example 26, (8S)-N-Methyl-N-[(3-{[methyl(2-methylpropyl)amino]methyl}imidazo[1,2-a]pyridin-2-yl)methyl]-5,6,7,8-tetrahydro-8-quinolinamine], the IC50 lay in the range of 100 to 500 nM.

Turning to `CN(CC#N)Cc1c(CN(C)[C@H]2CCCc3cccnc32)nc2ccccn12` [Example 25, (Methyl{[2-({methyl[(8S)-5,6,7,8-tetrahydro-8-quinolinyl]amino}methyl)imidazo[1,2-a]pyridin-3-yl]methyl}amino)acetonitrile], the IC50 is under 100 nM.

As to `CC(C)N1CCN(C(=O)c2c(CN(C)C3CCCc4cccnc43)nc3ccccn23)CC1` (stereo not shown) [Example 38, N-methyl-N-[(3-{[4-(1-methylethyl)-1-piperazinyl]carbonyl}imidazo[1,2-a]pyridin-2-yl)methyl]-5,6,7,8-tetrahydro-8-quinolinamine], the IC50 fell in the range of 500 to 10000 nM.

For the molecule `CN1CCN(C(=O)c2c(CN(C)C3CCCc4cccnc43)nc3ccccn23)CC1` (stereo not shown) [Example 37, N-methyl-N-({3-[(4-methyl-1-piperazinyl)carbonyl]imidazo[1,2-a]pyridin-2-yl}methyl)-5,6,7,8-tetrahydro-8-quinolinamine], the IC50 was 500 to 10000 nM.

As to `CN(Cc1nc2ccccn2c1CN1CCCC1)[C@H]1CCCc2cccnc21` [Example 9, (8S)-N-Methyl-N-{[3-(1-pyrrolidinylmethyl)imidazo[1,2-a]pyridin-2-yl]methyl}-5,6,7,8-tetrahydro-8-quinolinamine], the IC50 is under 100 nM.

`CN(C)CCN(C)c1ccc(-c2c(CN(C)[C@H]3CCCc4cccnc43)nc3ccccn23)cn1` [Example 16, N,N,N′-trimethyl-N′-trimethyl-N′-{5-[2-({methyl[(8S)-5,6,7,8-tetrahydro-8-quinolinyl]amino}methyl)imidazo[1,2-a]pyridin-3-yl]-2-pyridinyl}-1,2-ethanediamine]: the IC50 was 500 to 10000 nM.

On to `CN(C)C1CCN(Cc2c(CN(C)[C@H]3CCCc4cccnc43)nc3ccccn23)C1` (stereo partly drawn) [Example 13, (8S)-N-[(3-{[3-Dimethylamino-1-pyrrolidinyl]methyl}imidazo[1,2-a]pyridin-2-yl)methyl]-N-methyl-5,6,7,8-tetrahydro-8-quinolinamine], for which the IC50 is under 100 nM.

Regarding `CN(C)c1cc(-c2c(CN(C)[C@H]3CCCc4cccnc43)nc3ccccn23)ccn1` [Example 28, (8S)-N-({3-[2-(Dimethylamino)-4-pyridinyl]imidazo[1,2-a]pyridin-2-yl}methyl)-N-methyl-5,6,7,8-tetrahydro-8-quinolinamine], the IC50 was in the range of 100 to 500 nM.

Consider `CN(Cc1nc2ccccn2c1-c1ccc(N2CCOCC2)nc1)[C@H]1CCCc2cccnc21` [Example 8, (8S)-N-Methyl-N-({3-[6-(4-morpholinyl)-3-pyridinyl]imidazo[1,2-a]pyridin-2-yl}methyl)-5,6,7,8-tetrahydro-8-quinolinamine], for which the IC50 is 100 to 500 nM.
